According to patent US4485113A (priority 1979, dated 1984):

system: rat; experiment: not given; details: in vivo, po

| Structure (SMILES) | A.O. Rat. LD50 [mg/kg] |
| --- | --- |
| CNC(=O)ON=C(C)SC [Compound 1] | 49 |
| CNC(=O)ON=C(C)SC(C)C [Compound 3] | 8 |

system: not listed separately; experiment: in vivo; details: rat, po

| Structure (SMILES) | LD50 [mg/kg] |
| --- | --- |
| CC(=NOC(=O)N(C)SC(C)(C)C#N)SCCC#N [XXIV, 1-(2-Cyanoethylthio)acetaldehyde O--[N--methyl-N--(2-cyano-2-propanesulfenyl)carbamoyl]oxime] | 14.1 |
| CN(SC(C)(C#N)CCl)C(=O)ON=C1SC(C)(C)C(=O)N1C (centres unmarked) [XIX, 3,5,5-Trimethyl-2-[[O--[N--methyl-N--(1-chloro-2-cyano-2-propanesulfenyl)carbamoyl]oximino]]-4-thiazolidinone] | 320 |
| CC(=NOC(=O)N(C)SC(C)(C)C#N)SC(C)C [XXIII, 1-Isopropylthioacetaldehyde O--[N--methyl-N--(2-cyano-2-propanesulfenyl)carbamoyl]oxime] | 20 |
| CN(SC(C)(C)CCl)C(=O)ON=C1SC(C)(C)C(=O)N1C [XIII, 3,5,5-Trimethyl-2-[[O--[N--methyl-N--(2-chloromethyl-2-propanesulfenyl)carbamoyl]oximino]]-4-thiazolidinone] | 343 |
| CN(SSC(C)(C)C#N)C(=O)ON=C1CSCCS1 [XXXV, 2-[[O--[N--methyl-N--(2-cyano-2-propanethiosulfenyl)carbamoyl]oximino]]-1,4-dithiane] | 32 |
| CSC(C)=NOC(=O)N(C)SC(C)(C)C#N [X, 1-Methylthioacetaldehyde O-[N-methyl-N-(2-cyano-2-propanesulfenyl)carbamoyl]oxime] | 127 |
| CC(=NOC(=O)N(C)SSC(C)(C)C#N)SCCC#N [XXVIII, 1-(2-Cyanoethylthio)acetaldehyde O--[N--methyl-N--(2-cyano-2-propanethiosulfenyl)carbamoyl]oxime] | 28 |
| CC1OCSC1=NOC(=O)N(C)SSC(C)(C)C#N (centres unmarked) [XXXIV, 5-Methyl-4-[[O--[N--methyl-N--(2-cyano-2-propanethiosulfenyl)carbamoyl]oximino]]-1,3-oxathiolane] | 14 |
| CSC(C)=NOC(=O)N(C)SSC(C)(C)C#N [XXVII] | 127 |
| CC(=NOC(=O)N(C)SSC(C)(C)C#N)SC(C)C [XXIX, 1-Isopropylthioacetaldehyde O--[N-- methyl-N--(2-cyano-2-propanethiosulfenyl)carbamoyl]oxime] | 18 |
| CN(SSC(C)(C)C#N)C(=O)ON=CC(C)(C)C#N [XXXII, 2-Cyano-2-methylpropionaldehyde O--[N--methyl-N--(2-cyano-2-propanethiosulfenyl)carbamoyl]oxime] | 14 |
| CN(SC(C)(C)C#N)C(=O)ON=C1CSCCS1 [XXVI, 2-[[O--[N--methyl-N--(2-cyano-2-propanesulfenyl)carbamoyl]oximino]]-1,4-dithiane] | 40 |
